Source: ChEMBL document CHEMBL4665834 (J Med Chem, 2020)
In brackets after ≈: the same amount, converted by molar mass.

Experiments:
Prostacyclin receptor = Prostacyclin receptor (Homo sapiens, UniProt P43119); experiment: Displacement of [3H]PGD2 from full-length recombinant human IP receptor expressed in HEK293 cell membranes measured after 60 mins by scintillation counting method
[1] = Volume of distribution at steady state in Balb/c mouse at 1 mg/kg, iv administered as bolus dose or 3 mg/kg, po administered via gavage by LC-MS/MS analysis; format: ADME, organism-based; details: in vivo, read-out: Vdss
[2] = Volume of distribution at steady state in Wistar rat at 1 mg/kg, iv administered as bolus dose or 3 mg/kg, po administered via gavage by LC-MS/MS analysis; format: ADME, organism-based; details: in vivo, read-out: Vdss
[3] = target: Prostaglandin E2 receptor EP1 subtype (Homo sapiens, UniProt P34995); experiment: Displacement of [3H]prostaglandin E2 from full-length recombinant human EP1 receptor expressed in HEK293 cell membranes measured after 60 mins by scintillation counting method
[4] = Toxicity in Beagle dog up to 1 g/kg/day, po administered for 14 days; format: organism-based, Canis lupus familiaris; details: in vivo, 1000 mg/kg, 336 h, time 14 day
[5] = Drug metabolism in human hepatocytes assessed as oxidation at the pyrrolidine ring at 1 uM measured after 1 to 4 hrs by LC-MS/MS analysis; format: ADME, cell-based, Hepatocyte; details: time 1-4 hrs
Cytochrome P450 2D6 = Cytochrome P450 2D6 (Homo sapiens, UniProt P10635); experiment: Inhibition of CYP2D6 in human liver microsomes using dextromethorphan as substrate incubated for 15 mins in presence of NADPH generating system by LC-MS/MS analysis; format: ADME
[6] = Solubility of compound in 0.1 M HCl using crystalline form of sample; format: physicochemical
[7] = Oral bioavailability in Wistar rat at 1 to 3 mg/kg administered via gavage using EtOH/PEG400/H2O 10/40/50 formulation by LC-MS/MS analysis; format: ADME, organism-based; details: in vivo, dose 1-3 mg/kg
[8] = Drug metabolism in dog hepatocytes assessed as glucuronidation at 1 uM measured after 1 to 4 hrs by LC-MS/MS analysis; format: ADME, cell-based, Canis lupus familiaris, Hepatocyte; details: time 1-4 hrs
[9] = Solubility of compound in phosphate buffer at pH 8 using crystalline form of sample; format: physicochemical
[10] = Maximum oral bioavailability in rat hepatocytes based well stirred liver model at 1 uM measured after 2 to 90 mins by LC-MS/MS analysis; format: ADME, Hepatocyte; details: time 2-90 min, read-out: Fmax
[11] = Lipophilicity, log D of compound at pH 7.5 by HPLC analysis; details: buffer
[12] = target: T1, Prostaglandin F2-alpha receptor (Mus musculus, UniProt P43117); experiment: Antagonist activity at FPR in mouse NIH3T3 cells assessed as inhibition of PGF2alpha-induced cytokine induced neutrophil attracting chemokine production measured after 24 hrs by Bio-Rad assay; format: cell-based
[13] = Oral bioavailability in Balb/c mouse at 3 mg/kg administered via gavage by LC-MS/MS analysis; format: ADME, organism-based; details: in vivo
Cytochrome P450 2C8 = Cytochrome P450 2C8 (Homo sapiens, UniProt P10632); experiment: Inhibition of CYP2C8 in human liver microsomes using amodiaquine as substrate incubated for 15 mins in presence of NADPH generating system by LC-MS/MS analysis; format: ADME
[14] = target: T1, Prostaglandin F2-alpha receptor; experiment: Antagonist activity at FPR in mouse NIH3T3 cells assessed as inhibition of PGF2alpha-induced MCP1 production measured after 24 hrs by Bio-Rad assay; format: cell-based
[15] = target: T2, Prostaglandin F2-alpha receptor (Rattus norvegicus, UniProt P43118); experiment: Antagonist activity at rat FPR stably expressed in CHO cells assessed as inhibition of PGF2alpha-induced calcium flux preincubated for 10 mins followed by PGF2alpha stimulation and measured for 120 secs by fluo-8 AM dye based fluorescence assay; format: cell-based
[16] = Maximum oral bioavailability in dog hepatocytes based well stirred liver model at 1 uM measured after 2 to 90 mins by LC-MS/MS analysis; format: ADME, Canis lupus familiaris, Hepatocyte; details: time 2-90 min, read-out: Fmax
[17] = target: T2, Prostaglandin F2-alpha receptor; experiment: Antagonist activity at FPR in Wistar rat assessed as inhibition of PGF2alpha-induced uterus contraction; format: tissue-based
[18] = target: Prostaglandin E2 receptor EP3 subtype (Homo sapiens, UniProt P43115); experiment: Displacement of [3H]prostaglandin E2 from full-length recombinant human EP3 receptor expressed in HEK293 cell membranes measured after 120 mins by scintillation counting method
Cytochrome P450 3A4 = Cytochrome P450 3A4 (Homo sapiens, UniProt P08684); experiment: Inhibition of CYP3A4 in human liver microsomes using midazolam as substrate incubated for 10 mins in presence of NADPH generating system by LC-MS/MS analysis
[19] = Terminal half life in Wistar rat at 1 mg/kg, iv administered as bolus dose by LC-MS/MS analysis; format: ADME, organism-based; details: in vivo, read-out: beta t1/2 (converted)
[20] = Clearance in Balb/c mouse at 1 mg/kg, iv administered as bolus dose or 3 mg/kg, po administered via gavage by LC-MS/MS analysis; format: ADME, organism-based; details: in vivo
[21] = Clearance in Wistar rat at 1 mg/kg, iv administered as bolus dose or 3 mg/kg, po administered via gavage by LC-MS/MS analysis; format: ADME, organism-based; details: in vivo
[22] = Maximum oral bioavailability in human hepatocytes based well stirred liver model at 1 uM measured after 2 to 90 mins by LC-MS/MS analysis; format: ADME, Hepatocyte; details: time 2-90 min, read-out: Fmax
[23] = Clearance in Beagle dog at 0.5 mg/kg, iv administered as 15 mins infusion or 1 mg/kg, po administered via gavage by LC-MS/MS analysis; format: ADME, organism-based, Canis lupus familiaris; details: in vivo
[24] = Clearance in Wistar rat at 0.3 to 1 mg/kg, iv administered as bolus dose or 15 mins infusion by LC-MS/MS analysis; format: ADME, organism-based; details: Wistar, in vivo, dose 0.3-1 mg/kg
[25] = Protein binding in pooled dog plasma assessed as unbound fraction incubated for 6 hrs by LC-MS/MS analysis based equilibrium dialysis method; format: ADME, cell-free, Canis lupus familiaris
[26] = target: Prostaglandin E2 receptor EP4 subtype (Homo sapiens, UniProt P35408); experiment: Displacement of [3H]prostaglandin E2 from full-length recombinant human EP4 receptor expressed in HEK293 cell membranes measured after 120 mins by scintillation counting method
Cytochrome P450 2C9 = Cytochrome P450 2C9 (Homo sapiens, UniProt P11712); experiment: Inhibition of CYP2C9 in human liver microsomes using diclofenac as substrate incubated for 15 mins in presence of NADPH generating system by LC-MS/MS analysis; format: ADME
Thromboxane A2 receptor = Thromboxane A2 receptor (Homo sapiens, UniProt P21731); experiment: Antagonist activity at recombinant full-length human TP receptor expressed in HEK293 cells assessed as inhibition of U-44069-induced response measured after 30 mins by TR-FRET assay; format: cell-based
[27] = Protein binding in pooled human plasma assessed as unbound fraction incubated for 6 hrs by LC-MS/MS analysis based equilibrium dialysis method; format: ADME, cell-free
[28] = Oral bioavailability in Beagle dog at 1 mg/kg administered via gavage by LC-MS/MS analysis; format: ADME, organism-based, Canis lupus familiaris; details: in vivo
[29] = Toxicity in Wistar rat up to 300 mg/kg/day, po administered for 14 days; format: organism-based; details: in vivo, 336 h, time 14 day
[30] = Drug metabolism in rat hepatocytes assessed as formation of hydroxylated and ring-opened pyrrolidine derivative at 1 uM measured after 1 to 4 hrs by LC-MS/MS analysis; format: ADME, cell-based, Hepatocyte; details: time 1-4 hrs

T2 sequence (P43118 whole entry): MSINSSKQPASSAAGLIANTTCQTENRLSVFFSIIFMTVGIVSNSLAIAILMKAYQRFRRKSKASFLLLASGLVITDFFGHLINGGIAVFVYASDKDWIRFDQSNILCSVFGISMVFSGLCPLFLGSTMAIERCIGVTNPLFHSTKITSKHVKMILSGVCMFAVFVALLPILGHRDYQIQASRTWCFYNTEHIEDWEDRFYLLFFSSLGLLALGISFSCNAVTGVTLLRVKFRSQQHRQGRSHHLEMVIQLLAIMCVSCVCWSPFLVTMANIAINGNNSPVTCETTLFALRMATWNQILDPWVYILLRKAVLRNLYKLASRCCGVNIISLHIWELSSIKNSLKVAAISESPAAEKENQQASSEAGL
T1 sequence (P43117 whole entry): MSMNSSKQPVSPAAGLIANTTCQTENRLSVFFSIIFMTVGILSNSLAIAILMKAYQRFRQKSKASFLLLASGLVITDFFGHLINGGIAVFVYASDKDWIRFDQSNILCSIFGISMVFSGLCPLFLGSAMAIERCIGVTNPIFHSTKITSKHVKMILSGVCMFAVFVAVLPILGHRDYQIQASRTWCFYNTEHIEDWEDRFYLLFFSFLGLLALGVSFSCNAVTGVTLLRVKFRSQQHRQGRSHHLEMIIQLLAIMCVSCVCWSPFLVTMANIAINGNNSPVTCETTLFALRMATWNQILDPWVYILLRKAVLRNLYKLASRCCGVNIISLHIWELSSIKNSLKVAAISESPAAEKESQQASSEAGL
Prostacyclin receptor, sequence (P43119 whole entry): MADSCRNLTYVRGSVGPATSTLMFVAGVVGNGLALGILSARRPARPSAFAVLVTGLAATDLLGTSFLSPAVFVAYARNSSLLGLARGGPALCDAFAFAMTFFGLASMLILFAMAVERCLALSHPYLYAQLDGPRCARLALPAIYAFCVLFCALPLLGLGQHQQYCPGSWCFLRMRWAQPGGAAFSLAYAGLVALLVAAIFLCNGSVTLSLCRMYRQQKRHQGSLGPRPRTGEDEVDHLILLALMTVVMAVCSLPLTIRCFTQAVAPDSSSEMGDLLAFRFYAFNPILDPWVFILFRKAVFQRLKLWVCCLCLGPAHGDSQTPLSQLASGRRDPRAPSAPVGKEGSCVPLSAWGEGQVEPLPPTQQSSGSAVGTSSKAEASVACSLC
Cytochrome P450 2D6, sequence (P10635 whole entry): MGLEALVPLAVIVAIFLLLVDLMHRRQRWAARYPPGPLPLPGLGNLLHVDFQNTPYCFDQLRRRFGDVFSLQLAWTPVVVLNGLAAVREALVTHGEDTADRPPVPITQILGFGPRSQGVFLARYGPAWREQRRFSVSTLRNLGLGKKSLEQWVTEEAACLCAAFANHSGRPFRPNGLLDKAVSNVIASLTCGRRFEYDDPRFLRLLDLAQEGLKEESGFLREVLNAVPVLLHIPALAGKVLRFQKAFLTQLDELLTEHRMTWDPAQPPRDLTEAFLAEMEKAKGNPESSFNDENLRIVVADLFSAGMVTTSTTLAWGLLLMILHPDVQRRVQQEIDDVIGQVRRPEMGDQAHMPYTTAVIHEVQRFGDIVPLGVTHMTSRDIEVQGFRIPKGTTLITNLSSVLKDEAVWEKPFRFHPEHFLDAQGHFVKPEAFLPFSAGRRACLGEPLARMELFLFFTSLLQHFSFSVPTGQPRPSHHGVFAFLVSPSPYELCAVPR
Cytochrome P450 2C8, sequence (P10632 whole entry): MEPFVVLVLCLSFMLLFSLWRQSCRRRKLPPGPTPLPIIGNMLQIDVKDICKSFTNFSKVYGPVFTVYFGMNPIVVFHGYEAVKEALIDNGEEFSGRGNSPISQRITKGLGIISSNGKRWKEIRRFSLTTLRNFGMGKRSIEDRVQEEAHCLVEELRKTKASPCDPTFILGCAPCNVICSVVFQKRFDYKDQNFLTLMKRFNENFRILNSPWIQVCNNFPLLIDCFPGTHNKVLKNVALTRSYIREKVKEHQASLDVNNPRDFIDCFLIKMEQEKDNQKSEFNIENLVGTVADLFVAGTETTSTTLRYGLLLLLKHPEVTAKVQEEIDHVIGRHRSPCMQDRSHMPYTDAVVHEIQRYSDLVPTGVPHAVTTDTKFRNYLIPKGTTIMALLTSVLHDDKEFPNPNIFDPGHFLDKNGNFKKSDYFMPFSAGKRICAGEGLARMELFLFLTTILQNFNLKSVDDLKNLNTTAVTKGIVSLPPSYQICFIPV
Cytochrome P450 3A4, sequence (P08684 whole entry): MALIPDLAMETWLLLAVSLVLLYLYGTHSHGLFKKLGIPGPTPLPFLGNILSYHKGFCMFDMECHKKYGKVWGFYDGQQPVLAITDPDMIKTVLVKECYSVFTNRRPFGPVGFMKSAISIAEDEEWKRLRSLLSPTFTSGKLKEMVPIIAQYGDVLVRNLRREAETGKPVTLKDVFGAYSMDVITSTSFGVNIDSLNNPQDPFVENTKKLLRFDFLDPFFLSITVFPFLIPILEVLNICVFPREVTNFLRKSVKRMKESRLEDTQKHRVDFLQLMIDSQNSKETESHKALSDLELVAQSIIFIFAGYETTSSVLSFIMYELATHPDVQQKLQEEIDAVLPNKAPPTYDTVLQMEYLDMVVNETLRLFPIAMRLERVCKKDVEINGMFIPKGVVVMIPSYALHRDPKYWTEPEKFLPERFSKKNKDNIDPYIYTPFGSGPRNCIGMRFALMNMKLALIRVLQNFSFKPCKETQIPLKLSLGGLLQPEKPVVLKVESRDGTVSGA
Cytochrome P450 2C9, sequence (P11712 whole entry): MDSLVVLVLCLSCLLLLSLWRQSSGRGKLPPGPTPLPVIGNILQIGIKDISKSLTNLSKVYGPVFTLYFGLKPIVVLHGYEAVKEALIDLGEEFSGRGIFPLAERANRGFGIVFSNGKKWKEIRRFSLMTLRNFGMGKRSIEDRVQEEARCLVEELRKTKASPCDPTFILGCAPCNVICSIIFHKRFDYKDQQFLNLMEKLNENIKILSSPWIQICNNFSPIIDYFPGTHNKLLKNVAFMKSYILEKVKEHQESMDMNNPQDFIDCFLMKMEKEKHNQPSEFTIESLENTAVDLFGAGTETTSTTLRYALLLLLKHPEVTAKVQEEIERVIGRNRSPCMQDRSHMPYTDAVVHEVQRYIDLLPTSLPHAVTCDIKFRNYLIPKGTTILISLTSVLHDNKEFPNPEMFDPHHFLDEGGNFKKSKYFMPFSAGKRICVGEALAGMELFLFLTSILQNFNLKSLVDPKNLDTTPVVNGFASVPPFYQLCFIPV
Thromboxane A2 receptor, sequence (P21731 whole entry): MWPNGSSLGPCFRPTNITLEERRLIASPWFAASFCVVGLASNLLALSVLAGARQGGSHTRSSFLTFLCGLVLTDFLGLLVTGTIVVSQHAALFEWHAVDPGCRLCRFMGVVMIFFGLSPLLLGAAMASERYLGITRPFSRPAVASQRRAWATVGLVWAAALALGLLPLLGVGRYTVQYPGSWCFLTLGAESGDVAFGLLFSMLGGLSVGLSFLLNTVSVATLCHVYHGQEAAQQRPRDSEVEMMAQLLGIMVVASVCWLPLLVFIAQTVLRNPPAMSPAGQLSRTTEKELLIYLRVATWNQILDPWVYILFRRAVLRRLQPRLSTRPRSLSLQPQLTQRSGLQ
Prostaglandin E2 receptor EP3 subtype, sequence (P43115 whole entry): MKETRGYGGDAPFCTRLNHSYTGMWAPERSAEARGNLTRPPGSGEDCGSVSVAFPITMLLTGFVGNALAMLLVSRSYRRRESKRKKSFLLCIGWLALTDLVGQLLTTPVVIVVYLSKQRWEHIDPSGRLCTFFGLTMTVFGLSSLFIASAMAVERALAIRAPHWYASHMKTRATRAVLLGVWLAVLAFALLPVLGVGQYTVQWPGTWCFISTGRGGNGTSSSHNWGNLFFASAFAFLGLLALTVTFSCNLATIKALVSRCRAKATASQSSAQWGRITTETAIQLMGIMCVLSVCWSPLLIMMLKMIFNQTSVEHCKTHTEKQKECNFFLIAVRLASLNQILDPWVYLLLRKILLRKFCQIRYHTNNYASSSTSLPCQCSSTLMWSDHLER
Prostaglandin E2 receptor EP4 subtype, sequence (P35408 whole entry): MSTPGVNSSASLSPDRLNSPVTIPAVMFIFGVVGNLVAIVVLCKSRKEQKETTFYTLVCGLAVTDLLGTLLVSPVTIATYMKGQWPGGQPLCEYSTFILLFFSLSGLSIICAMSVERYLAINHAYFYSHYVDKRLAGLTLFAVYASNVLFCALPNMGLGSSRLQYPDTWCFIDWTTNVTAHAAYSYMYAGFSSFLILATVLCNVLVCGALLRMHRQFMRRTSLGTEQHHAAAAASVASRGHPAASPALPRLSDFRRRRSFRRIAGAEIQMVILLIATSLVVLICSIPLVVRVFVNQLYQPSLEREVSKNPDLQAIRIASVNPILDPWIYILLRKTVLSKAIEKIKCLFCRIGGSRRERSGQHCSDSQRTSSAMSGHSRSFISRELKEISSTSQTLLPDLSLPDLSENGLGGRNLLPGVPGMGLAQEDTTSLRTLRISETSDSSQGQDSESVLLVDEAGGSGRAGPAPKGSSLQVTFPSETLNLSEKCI
Prostaglandin E2 receptor EP1 subtype, sequence (P34995 whole entry): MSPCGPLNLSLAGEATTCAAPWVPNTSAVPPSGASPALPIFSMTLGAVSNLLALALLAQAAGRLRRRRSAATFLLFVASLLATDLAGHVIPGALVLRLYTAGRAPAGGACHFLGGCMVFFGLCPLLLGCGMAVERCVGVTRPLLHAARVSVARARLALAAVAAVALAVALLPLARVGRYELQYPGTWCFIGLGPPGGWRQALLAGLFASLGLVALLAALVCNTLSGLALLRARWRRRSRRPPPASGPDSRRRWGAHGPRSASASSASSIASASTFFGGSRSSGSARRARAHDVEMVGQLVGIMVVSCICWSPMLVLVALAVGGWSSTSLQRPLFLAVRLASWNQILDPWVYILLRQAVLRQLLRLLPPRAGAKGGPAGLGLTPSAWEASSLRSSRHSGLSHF

IC50 (Prostacyclin receptor): > 10 µM | Vd [1]: 2 L/kg | Vd [2]: 2.1 L/kg | IC50 [3]: > 10 µM | Drug metabolism [5]: Metabolite_Detected | IC50 (Cytochrome P450 2D6): > 20 µM | solubility [6]: 440 µg/mL (≈ 808 µM) | bioavailability [7]: 91% | Drug metabolism [8]: Metabolite_Detected | solubility thermodynamic [9]: 290 µg/mL (≈ 532 µM) | Fh at 1 µM [10]: 67% | logD [11]: 2.3 | IC50 [12]: 12 nM | bioavailability [13]: 94% | IC50 (Cytochrome P450 2C8): > 20 µM | IC50 [14]: 18 nM | IC50 [15]: 11 nM | Fh at 1 µM [16]: 18% | IC50 [17]: 52 nM | IC50 [18]: > 10 µM | IC50 (Cytochrome P450 3A4): > 20 µM | half-life [19]: 228 min | clearance [20]: 18.3 mL/min/kg | clearance [21]: 11.7 mL/min/kg | Fh at 1 µM [22]: 66% | clearance [23]: 13.3 mL/min/kg | clearance [24]: 11.7 mL/min/kg | fraction unbound at 6 h [25]: < 0.01 | IC50 [26]: > 9.4 µM | IC50 (Cytochrome P450 2C9): > 20 µM | IC50 (Thromboxane A2 receptor): 2200 nM | fraction unbound at 6 h [27]: < 0.01 | bioavailability [28]: 45% | Drug metabolism [30]: Metabolite_Detected
Structure (SMILES): Cc1c(N2CCCC2)nc2ccc(Br)cc2c1C(=O)NC[C@H](CCC(=O)O)c1ccccc1Cl [BAY-6672]
Activity [4]: Non-Toxic | Activity [29]: Non-Toxic
